Laboratory results: the supplement of paper PMC10307832

What was measured:
Experiment in all cases: relative viability (nuclei count vs DMSO), 5 days (fraction); higher = more cells survive
[1] = compound: COc1cc2nccc(Oc3ccc(NC(=O)C4(C(=O)Nc5ccc(F)cc5)CC4)cc3)c2cc1OC [Cabozantinib] + O=C(CCCCCCC(=O)Nc1ccccc1)NO [Vorinostat] (partner 1 µM)
How it was run: (§1)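 Relative viability is defined as nuclei in treated wells over nuclei in vehicle wells. Duplicate plates were run and medians reported. Lung cancer cell lines in 1536-well plates were dosed by pin tool one day after seeding, with one drug or with a fixed anchor-drug dose plus five library-drug doses (not always all listed) in √10 steps, and nuclei were counted after 5 days.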

[2] = compound: COc1cc2nccc(Oc3ccc(NC(=O)C4(C(=O)Nc5ccc(F)cc5)CC4)cc3)c2cc1OC [Cabozantinib] + C[C@@H](Oc1cc(-c2cnn(C3CCNCC3)c2)cnc1N)c1c(Cl)ccc(F)c1Cl [Crizotinib] (partner 1 µM)
How it was run: as §1

[3] = compound: COc1cc2nccc(Oc3ccc(NC(=O)C4(C(=O)Nc5ccc(F)cc5)CC4)cc3)c2cc1OC [Cabozantinib] + Nc1ncn([C@H]2C[C@H](O)[C@@H](CO)O2)c(=O)n1 [Decitabine] (partner 2 µM)
How it was run: as §1

[4] = compound: O[C@@H](COc1cccc2ncccc12)CN1CCN([C@@H]2c3ccccc3[C@@H]3[C@H](c4ccccc42)C3(F)F)CC1 [Zosuquidar] + O=C(CCCCCCC(=O)Nc1ccccc1)NO [Vorinostat] (partner 1 µM)
How it was run: as §1

Cell Line	relative viability ([1]; first compound 0.02 µM)	relative viability ([1]; first compound 0.06325 µM)	relative viability ([1]; first compound 0.2 µM)	relative viability ([1]; first compound 0.6325 µM)	relative viability ([1]; first compound 2 µM)	relative viability ([2]; first compound 0.02 µM)	relative viability ([2]; first compound 0.06325 µM)	relative viability ([2]; first compound 0.2 µM)	relative viability ([2]; first compound 0.6325 µM)	relative viability ([2]; first compound 2 µM)	relative viability ([3]; first compound 0.02 µM)	relative viability ([3]; first compound 0.06325 µM)	relative viability ([3]; first compound 0.2 µM)	relative viability ([3]; first compound 0.6325 µM)	relative viability ([3]; first compound 2 µM)	relative viability ([4]; first compound 0.01 µM)	relative viability ([4]; first compound 0.03162 µM)	relative viability ([4]; first compound 0.1 µM)	relative viability ([4]; first compound 0.3162 µM)	relative viability ([4]; first compound 1 µM)
NCI-H838	0.744	0.765	0.713	0.665	0.667	1.03	0.925	0.834	0.787	0.799	0.485	0.479	0.435	0.469	0.438	0.744	0.793	0.791	0.755	0.806
NCI-H1944	0.615	0.617	0.527	0.582	0.637		1.26	1.1	1.07	1.21	0.477	0.483	0.42	0.481	0.466	0.524	0.528	0.543	0.672	0.535
NCI-H1437	0.931	0.984	0.925	0.809	0.715	1.02	1	0.955	0.976	0.792	0.64	0.567	0.58	0.576	0.558	0.849	0.957	0.851	0.857	0.832
RERF-LC-KJ	0.65	0.768	0.666	0.801	0.75	0.868	0.895	0.917	0.802	0.855	0.717	0.735	0.649	0.666	0.746	0.728	0.707	0.694	0.772	0.683
NCI-H1651	0.511	0.709	0.533	0.571	0.622	0.821	0.866	0.885	0.846	0.842	0.465	0.743	0.565	0.616	0.599	0.576	0.604	0.471	0.607	0.501
